From patent US7462600B2, “Macrolides” (Pfizer Inc, priority 2004, dated 2008)
≈ marks a conversion by molar mass, not a printed value. Like-named read-outs stand apart in the source and are kept apart here.

How the values were obtained:
Format in all cases: cell-based
[1] = system: Streptococcus pyogenes 1079; test: MIC, microtiter broth dilution (NCCLS M100-S14), S. pyogenes 1079 (ermB)
In short: (§1)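 Where available, resistant strains were tested alongside the susceptible parent they derive from. The MIC, determined by tray-based broth dilution and NCCLS M100-S14 interpretation, served as the comparison value.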

[2] = system: Streptococcus pneumoniae 1016; test: MIC, microtiter broth dilution (NCCLS M100-S14), S. pneumoniae 1016 (susceptible)
In short: as §1

[3] = system: Streptococcus pneumoniae 1095; details: microtiter broth dilution
In short: as §1

[4] = system: Streptococcus pneumoniae 1175; details: microtiter broth dilution
In short: as §1

[5] = system: Haemophilus influenzae 1218; test: MIC, microtiter broth dilution (NCCLS M100-S14), H. influenzae 1218 (susceptible)
In short: as §1

[6] = S. pneumoniae 1016 (susceptible)
[7] = H. influenzae 1218 (susceptible)

| SMILES | MIC S. pyogenes 1079 ([1]; Streptococcus pyogenes 1079) [µg/mL] | MIC S. pneumo. 1016 ([2]; Streptococcus pneumoniae 1016) [µg/mL] | MIC S. pneumo. 1095 ([3]; Streptococcus pneumoniae 1095) [µg/mL] | MIC S. pneumo. 1175 ([4]; Streptococcus pneumoniae 1175) [µg/mL] | MIC H. influenzae 1218 ([5]; Haemophilus influenzae 1218) [µg/mL] | MIC S. pyogenes 1079 ([1]; S. pyogenes 1079 (ermB)) [µg/mL] | MIC S. pneumo. 1016 [2, 6] [µg/mL] | MIC S. pneumo. 1095 ([3]; S. pneumoniae 1095 (ermB)) [µg/mL] | MIC S. pneumo. 1175 ([4]; S. pneumoniae 1175 (mefA)) [µg/mL] | MIC H. influenzae 1218 [5, 7] [µg/mL] |
| --- | --- | --- | --- | --- | --- | --- | --- | --- | --- | --- |
| CCC1OC(=O)C(C)C(=O)C(C)C(OC2OC(C)CC(N(C)C)C2O)C(C)(OC)CC(C)C(=O)C(C)C2N(C3CN(S(=O)(=O)c4cccc(-c5cc[nH]n5)c4)C3)C(=O)OC12C (stereo not drawn) [Example 3.36, 3-descladinosyl-11,12-dideoxy-6-O-methyl-3-oxo-12,11-(oxycarbonyl-(1-(3-(1H-pyrazol-3-yl)benzenesulfonyl)-azetidin-3-yl)-imino)-erythromycin A] | 1 (≈ 1.14 µM) | <0.06 | <0.06 | <0.06 | 0.25 (≈ 0.286 µM) | – | – | – | – | – |
| CCC1OC(=O)C(C)C(=O)C(C)C(OC2OC(C)CC(N(C)C)C2O)C(C)(OC)CC(C)C(=O)C(C)C2N(CC3CCN(Cc4cnc5ccccc5c4)CC3)C(=O)OC12C (stereo not drawn) [15.03] | – | – | – | – | – | >64.00 | <0.06 | >64.00 | 0.25 (≈ 0.294 µM) | 8 (≈ 9.4 µM) |
| CCC1OC(=O)C(C)C(=O)C(C)C(OC2OC(C)CC(N(C)C)C2O)C(C)(OC)CC(C)C(=O)C(C)C2N(CC3CN(C(=O)c4ccncc4)C3)C(=O)OC12C (stereo not drawn) [4.05] | >64.00 | 0.02 (≈ 0.0254 µM) | 2 (≈ 2.54 µM) | 1 (≈ 1.27 µM) | 4 (≈ 5.08 µM) | – | – | – | – | – |
| CC[C@H]1OC(=O)[C@H](C)C(=O)[C@H](C)[C@@H](O[C@@H]2O[C@H](C)C[C@H](N(C)C)[C@H]2O)[C@](C)(OC)C[C@@H](C)C(=O)[C@H](C)[C@H]2N(CC3(O)CN(S(=O)(=O)c4ccc5[nH]c(=O)oc5c4)C3)C(=O)O[C@]12C [7.16] | – | – | – | – | – | >64.00 | <0.06 | 64 (≈ 71.5 µM) | 4 (≈ 4.47 µM) | 1 (≈ 1.12 µM) |
| CCC1OC(=O)C(C)C(=O)C(C)C(OC2OC(C)CC(N(C)C)C2O)C(C)(OC)CC(C)C(=O)C(C)C2N(CC3CN(Cc4ccn(-c5cccnc5)n4)C3)C(=O)OC12C.O=CO (stereo not drawn) [4.30] | >64.00 | <0.06 | >64.00 | 0.25 | 0.5 | – | – | – | – | – |
| CCC1OC(=O)C(C)C(=O)C(C)C(OC2OC(C)CC(N(C)C)C2O)C(C)(OC)CC(C)C(=O)C(C)C2N(CC3CCCN3C(=O)c3ccnc4ccccc34)C(=O)OC12C (stereo not drawn) [12.08] | – | – | – | – | – | >64.00 | <0.06 | 1 (≈ 1.18 µM) | 2 (≈ 2.35 µM) | 16 (≈ 18.8 µM) |
| CCC1OC(=O)C(C)C(=O)C(C)C(OC2OC(C)CC(N(C)C)C2O)C(C)(OC)CC(C)C(=O)C(C)C2N(C3CN(C(=O)c4ccnc(-c5noc(C)n5)c4)C3)C(=O)OC12C (stereo not drawn) [Example 2.18] | >64.00 | <0.06 | >64.00 | 0.5 (≈ 0.585 µM) | 32 (≈ 37.4 µM) | – | – | – | – | – |
| CCC1OC(=O)C(C)(F)C(=O)C(C)C(OC2OC(C)CC(N(C)C)C2O)C(C)(OC)CC(C)C(=O)C(C)C2N(CC3CCCN3C(=O)c3nccc4ccccc34)C(=O)OC12C (stereo not drawn) [10.29] | – | – | – | – | – | 16 (≈ 18.4 µM) | <0.06 | <0.06 | 0.12 (≈ 0.138 µM) | 2 (≈ 2.3 µM) |
| CCCC(c1ccnc2ccccc12)N1CC(N2C(=O)OC3(C)C(CC)OC(=O)C(C)C(=O)C(C)C(OC4OC(C)CC(N(C)C)C4O)C(C)(OC)CC(C)C(=O)C(C)C23)C1 (stereo not drawn) [Example 1.65, 3-descladinosyl-11,12-dideoxy-6-O-methyl-3-oxo-12,11-(oxycarbonyl-(1-(1-(quinolin4-yl)-butyl)-azetidin-3-yl)-imino)-erythromycin A] | 8 (≈ 9.4 µM) | <0.06 | <0.06 | <0.06 | 1 (≈ 1.17 µM) | – | – | – | – | – |
| CCC1OC(=O)C(C)C(=O)C(C)C(OC2OC(C)CC(N(C)C)C2O)C(C)(OC)CC(C)C(=O)C(C)C2N(C3CN(Cc4c(OC)ccc5ccccc45)C3)C(=O)OC12C (stereo not drawn) [Example 1.86, 3-descladinosyl-11,12-dideoxy-6-O-methyl-3-oxo-12,11-(oxycarbonyl-(1-(2-methoxynaphthalene-1-methyl)-azetidin-3-yl)-imino)-erythromycin A] | 1 (≈ 1.19 µM) | <0.063 | 0.125 (≈ 0.149 µM) | <0.063 | 1 (≈ 1.19 µM) | – | – | – | – | – |
| CCC1OC(=O)C(C)C(=O)C(C)C(OC2OC(C)CC(N(C)C)C2O)C(C)(OC)CC(C)C(=O)C(C)C2N(C3CN(S(=O)(=O)c4cccc(-c5nnc(C)o5)c4)C3)C(=O)OC12C (stereo not drawn) [Example 3.60, 3-descladinosyl-11,12-dideoxy-6-O-methyl-3-oxo-12,11-(oxycarbonyl-(1-(3-(5-methyl-1,3,4-oxadiazol-2-yl)benzenesulfonyl)-azetidin-3-yl)imino)erythromycin A] | 4 (≈ 4.49 µM) | <0.06 | <0.06 | 0.12 (≈ 0.135 µM) | 2 (≈ 2.25 µM) | – | – | – | – | – |
| CCC1OC(=O)C(C)C(=O)C(C)C(OC2OC(C)CC(N(C)C)C2O)C(C)(OC)CC(C)C(=O)C(C)C2N(C3CN(S(=O)(=O)c4ccc(OC)c5nccnc45)C3)C(=O)OC12C (stereo not drawn) [Example 3.112, 3-descladinosyl-11,12-dideoxy-6-O-methyl-3-oxo-12,11-(oxycarbonyl-(1-(8-methoxyquinoxaline-5-sulfonyl)-azetidin-3-yl)-imino)erythromycin A] | 0.125 (≈ 0.14 µM) | <0.063 | <0.063 | 0.25 (≈ 0.281 µM) | 2 (≈ 2.25 µM) | – | – | – | – | – |
| CCC1OC(=O)C(C)C(=O)C(C)C(OC2OC(C)CC(N(C)C)C2O)C(C)(OC)CC(C)C(=O)C(C)C2N(CC3(O)CCN(Cc4c[nH]c5ncccc45)CC3)C(=O)OC12C (stereo not drawn) [Example 14.01, (1H-pyrrolo[2,3-b]pyridin-3-yl)methyl] | – | – | – | – | – | >64.00 | <0.06 | 32 (≈ 37.4 µM) | 1 (≈ 1.17 µM) | 4 (≈ 4.67 µM) |
| CCC1OC(=O)C(C)C(=O)C(C)C(OC2OC(C)CC(N(C)C)C2O)C(C)(OC)CC(C)C(=O)C(C)C2N(CC3CCN(Cc4ccc5ccccc5n4)C3)C(=O)OC12C (stereo not drawn) [11.04] | – | – | – | – | – | 64 (≈ 76.5 µM) | <0.06 | <0.06 | 0.12 (≈ 0.143 µM) | 1 (≈ 1.19 µM) |
| CCC1OC(=O)C(C)C(=O)C(C)C(OC2OC(C)CC(N(C)C)C2O)C(C)(OC)CC(C)C(=O)C(C)C2N(C3CN(S(=O)(=O)c4cc(Cl)ccc4OC)C3)C(=O)OC12C (stereo not drawn) [Example 3.106, 3-descladinosyl-11,12-dideoxy-6-O-methyl-3-oxo-12,11-(oxycarbonyl-(1-(5-chloro-2-methoxybenzene-1-sulfonyl)-azetidin-3-yl)-imino)-erythromycin A] | 0.5 (≈ 0.573 µM) | <0.063 | <0.063 | <0.063 | 0.5 (≈ 0.573 µM) | – | – | – | – | – |
| CCC1OC(=O)C(C)C(=O)C(C)C(OC2OC(C)CC(N(C)C)C2O)C(C)(OC)CC(C)C(=O)C(C)C2N(C3CN(C(=O)c4ccc(-n5cccn5)nc4)C3)C(=O)OC12C (stereo not drawn) [Example 2.20] | >64.00 | <0.06 | 1 (≈ 1.19 µM) | 0.12 (≈ 0.143 µM) | 16 (≈ 19.1 µM) | – | – | – | – | – |
| CCC1OC(=O)C(C)C(=O)C(C)C(OC2OC(C)CC(N(C)C)C2O)C(C)(OC)CC(C)C(=O)C(C)C2N(CC3CCN(Cc4cccc5nccnc45)CC3)C(=O)OC12C (stereo not drawn) [15.01] | – | – | – | – | – | >64.00 | <0.06 | >64.00 | 0.25 (≈ 0.293 µM) | 32 (≈ 37.6 µM) |
| CCC1OC(=O)C(C)C(=O)C(C)C(OC2OC(C)CC(N(C)C)C2O)C(C)(OC)CC(C)C(=O)C(C)C2N(C3CN(Cc4cc(OC)nc5ccccc45)C3)C(=O)OC12C (stereo not drawn) [Example 1.39, (2-methoxyquinolin-4-yl)methyl] | 16 (≈ 19.1 µM) | <0.06 | <0.06 | 0.25 (≈ 0.298 µM) | 1 (≈ 1.19 µM) | – | – | – | – | – |
| CCC1OC(=O)C(C)C(=O)C(C)C(OC2OC(C)CC(N(C)C)C2O)C(C)(OC)CC(C)C(=O)C(C)C2N(C3CN(S(=O)(=O)c4ccc(-n5cccn5)c(C#N)c4)C3)C(=O)OC12C (stereo not drawn) [Example 3.50] | 0.25 (≈ 0.278 µM) | <0.06 | <0.06 | <0.06 | 1 (≈ 1.11 µM) | – | – | – | – | – |
| CCC1OC(=O)C(C)C(=O)C(C)C(OC2OC(C)CC(N(C)C)C2O)C(C)(OC)CC(C)C(=O)C(C)C2N(C3CN(Cc4ccc(OC)c5nccnc45)C3)C(=O)OC12C (stereo not drawn) [Example 1.105] | 8 (≈ 9.52 µM) | <0.063 | <0.063 | 0.125 (≈ 0.149 µM) | 1 (≈ 1.19 µM) | – | – | – | – | – |
| CCC1OC(=O)C(C)C(=O)C(C)C(OC2OC(C)CC(N(C)C)C2O)C(C)(OC)CC(C)C(=O)C(C)C2N(CC3CCN(Cc4nccc5ccccc45)C3)C(=O)OC12C (stereo not drawn) [11.10] | – | – | – | – | – | 64 (≈ 76.5 µM) | <0.06 | <0.06 | <0.06 | 0.12 (≈ 0.143 µM) |
